“And” between values parts separate entries of the source, which are not always exact repeats. Identical values can stand only once. Like-named read-outs stand apart in the source and are kept apart here. Numbered stars: 1 amine (or outer) side, 2 acyl side, 3 side chain; on linkers, the order of the positions; unused ones are H or OH. Square brackets hold non-standard residues; d marks the D form. Peptide text beside a SMILES is read from it. X1 = O=C(c1ccc(-c2ccc(N3CCNCC3)cc2)c(CN[*:1])c1)[*:2]
How the values were obtained:
[1] = biological target: T1, integrin α4β7 (Homo sapiens, UniProt P13612+P26010); assay: Whole blood ligand displacement (receptor occupancy): biotinylated rhMAdCAM-1 binding to α4β7+ Th memory cells; type: cell-based; conditions: for selectivity of RO versus α4β1 (fold difference in IC50 between assays): whole blood, α4β7 versus α4β1
T1 sequence (P13612 34-1032): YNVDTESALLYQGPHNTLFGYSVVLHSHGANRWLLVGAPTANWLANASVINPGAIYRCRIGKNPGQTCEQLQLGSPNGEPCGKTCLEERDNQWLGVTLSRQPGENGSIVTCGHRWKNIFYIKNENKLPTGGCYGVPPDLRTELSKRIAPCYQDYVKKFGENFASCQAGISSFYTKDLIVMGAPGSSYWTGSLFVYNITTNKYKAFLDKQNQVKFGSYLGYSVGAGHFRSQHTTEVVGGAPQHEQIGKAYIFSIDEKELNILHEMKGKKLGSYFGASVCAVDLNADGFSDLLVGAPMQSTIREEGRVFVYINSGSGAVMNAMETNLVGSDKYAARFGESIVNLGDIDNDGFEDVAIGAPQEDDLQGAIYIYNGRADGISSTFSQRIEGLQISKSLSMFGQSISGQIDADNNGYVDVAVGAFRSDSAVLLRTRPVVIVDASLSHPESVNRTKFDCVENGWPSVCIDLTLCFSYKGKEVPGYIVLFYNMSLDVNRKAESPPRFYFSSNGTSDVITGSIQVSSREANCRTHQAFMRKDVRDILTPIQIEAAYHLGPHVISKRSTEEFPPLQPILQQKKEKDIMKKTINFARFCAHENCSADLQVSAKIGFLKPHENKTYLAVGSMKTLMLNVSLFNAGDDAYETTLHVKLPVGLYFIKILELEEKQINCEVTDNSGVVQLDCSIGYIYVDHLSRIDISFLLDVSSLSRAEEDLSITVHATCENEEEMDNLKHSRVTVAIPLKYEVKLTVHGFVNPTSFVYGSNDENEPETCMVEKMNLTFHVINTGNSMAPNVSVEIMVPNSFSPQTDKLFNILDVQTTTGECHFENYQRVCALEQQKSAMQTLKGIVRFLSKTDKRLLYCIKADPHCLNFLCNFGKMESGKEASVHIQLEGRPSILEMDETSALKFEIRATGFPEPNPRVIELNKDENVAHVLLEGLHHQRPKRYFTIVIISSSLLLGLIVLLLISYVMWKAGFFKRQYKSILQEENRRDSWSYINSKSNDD
T1 sequence (P26010 20-798): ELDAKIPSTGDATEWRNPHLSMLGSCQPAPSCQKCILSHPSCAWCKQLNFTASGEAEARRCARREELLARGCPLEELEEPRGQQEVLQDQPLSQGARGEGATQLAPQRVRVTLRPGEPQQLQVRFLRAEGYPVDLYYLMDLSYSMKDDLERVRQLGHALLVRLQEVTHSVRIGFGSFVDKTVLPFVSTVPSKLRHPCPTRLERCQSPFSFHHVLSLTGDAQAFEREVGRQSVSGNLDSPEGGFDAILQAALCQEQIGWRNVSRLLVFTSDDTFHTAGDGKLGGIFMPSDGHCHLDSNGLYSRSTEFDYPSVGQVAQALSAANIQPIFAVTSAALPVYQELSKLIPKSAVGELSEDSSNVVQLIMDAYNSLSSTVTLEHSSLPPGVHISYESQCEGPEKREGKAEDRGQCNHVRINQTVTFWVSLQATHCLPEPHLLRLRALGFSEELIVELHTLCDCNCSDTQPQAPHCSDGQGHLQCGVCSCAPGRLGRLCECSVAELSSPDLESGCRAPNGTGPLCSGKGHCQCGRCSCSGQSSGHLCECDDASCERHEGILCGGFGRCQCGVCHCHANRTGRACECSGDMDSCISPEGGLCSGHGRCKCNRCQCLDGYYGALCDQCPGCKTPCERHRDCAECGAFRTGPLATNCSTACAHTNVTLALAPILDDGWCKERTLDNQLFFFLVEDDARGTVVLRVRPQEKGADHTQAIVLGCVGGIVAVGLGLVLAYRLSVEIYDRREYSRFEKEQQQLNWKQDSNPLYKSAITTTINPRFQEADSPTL
Method: Receptor occupancy (RO) in primary cells was determined by measuring the amount of biotinylated human recombinant MAdCAM-1-FC or human recombinant VCAM-1-Fc bound to selected cell populations using flow cytometry. Human recombinant MAdCAM-1-FC or human recombinant VCAM-1-FC (R&D systems) were biotinylated using commercially available reagents and protocol (Pierce). Whole blood was collected from human donors in sodium heparin tubes. […] Cells were washed twice with 1 mL of 1×DPBS calcium magnesium free(CMF) (ThermoFisher Scientific) and resuspended in 100 μL of DPBS CMF. […] Cells were washed with 1 mL stain buffer-FBS (BD Biosciences) and resuspended in 100 μl stain Buffer-FBS (BD Biosciences) containing 4 mM MnCl2. […] Cells were then washed with 1 mL stain buffer-FBS and resuspended in 100 μl stain buffer-FBS. The cells were incubated in the dark for 30 minutes at room temperature with 1 μl Streptavidin APC (Biolegend 0.2 mg/ml) and a panel of antibodies for the detection of memory T helper a4b7-positive cells subset. And amount of 5.0 μl each of the following antibodies were used; CD45 FITC (BioLegend 200 μg/ml), CD29 APC Cy7 (BioLegend 100 μg/ml), Integrin beta7 PE, (BioLegend concentration 50 μg/mL), CD49d […] (BioLegend 50 μg/mL), CD3 […] (BioLegend 30 μg/mL), CD4 PECy7 (BioLegend 100 μg/mL), CD45RO PerCP, BioLegend 200 μg/mL). The cells were then washed with stain-buffer-FBS and resuspended in 150 μL stain buffer-FBS for acquisition on the flow cytometer (BD FACSCantoTM flow cytometer and […] software). FACS data was acquire by electronic gating on the basis of forward versus side scatter, The cytometer was set to collect 20,000 events in each tube. Cell population were determined using the following markers, CD45+, CD3+, CD4+, CD45RO+, CD49d+, integrin β7, biotinylated ligands.

[2] = biological target: integrin α4β1 (Homo sapiens, UniProt P05556+P13612); assay: Whole blood ligand displacement (receptor occupancy): biotinylated rhVCAM-1 binding to α4β7-negative Th memory cells; type: cell-based; conditions: read-out: VCAM Competition IC50 (receptor occupancy)
integrin α4β1, sequence (P05556 21-798, one chain of several): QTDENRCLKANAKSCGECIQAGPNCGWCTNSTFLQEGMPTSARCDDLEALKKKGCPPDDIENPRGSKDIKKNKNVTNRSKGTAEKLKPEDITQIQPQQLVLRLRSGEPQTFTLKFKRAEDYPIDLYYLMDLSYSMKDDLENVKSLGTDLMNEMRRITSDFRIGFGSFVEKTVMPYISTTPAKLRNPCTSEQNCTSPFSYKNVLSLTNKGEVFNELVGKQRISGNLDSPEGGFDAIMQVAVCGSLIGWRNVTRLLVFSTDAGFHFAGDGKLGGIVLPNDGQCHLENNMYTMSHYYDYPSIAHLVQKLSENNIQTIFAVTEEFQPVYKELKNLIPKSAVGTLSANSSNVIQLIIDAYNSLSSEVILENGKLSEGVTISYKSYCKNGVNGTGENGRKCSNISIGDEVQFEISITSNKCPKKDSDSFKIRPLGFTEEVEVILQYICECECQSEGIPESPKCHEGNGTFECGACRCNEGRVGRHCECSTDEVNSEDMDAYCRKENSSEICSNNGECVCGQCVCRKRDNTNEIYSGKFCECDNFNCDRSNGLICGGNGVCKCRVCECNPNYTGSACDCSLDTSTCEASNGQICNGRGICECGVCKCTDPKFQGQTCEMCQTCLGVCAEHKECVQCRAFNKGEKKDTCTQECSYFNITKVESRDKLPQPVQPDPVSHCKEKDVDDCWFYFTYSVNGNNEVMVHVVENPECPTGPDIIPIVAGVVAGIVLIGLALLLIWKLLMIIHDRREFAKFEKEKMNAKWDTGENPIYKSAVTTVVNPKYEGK
Method: Receptor occupancy (RO) in primary cells was determined by measuring the amount of biotinylated human recombinant MAdCAM-1-FC or human recombinant VCAM-1-Fc bound to selected cell populations using flow cytometry. Human recombinant MAdCAM-1-FC or human recombinant VCAM-1-FC (R&D systems) were biotinylated using commercially available reagents and protocol (Pierce). Whole blood was collected from human donors in sodium heparin tubes. […] Cells were washed twice with 1 mL of 1×DPBS calcium magnesium free(CMF) (ThermoFisher Scientific) and resuspended in 100 μL of DPBS CMF. […] Cells were washed with 1 mL stain buffer-FBS (BD Biosciences) and resuspended in 100 μl stain Buffer-FBS (BD Biosciences) containing 4 mM MnCl2. […] Cells were then washed with 1 mL stain buffer-FBS and resuspended in 100 μl stain buffer-FBS. The cells were incubated in the dark for 30 minutes at room temperature with 1 μl Streptavidin APC (Biolegend 0.2 mg/ml) and a panel of antibodies for the detection of memory T helper a4b7-positive cells subset. And amount of 5.0 μl each of the following antibodies were used; CD45 FITC (BioLegend 200 μg/ml), CD29 APC Cy7 (BioLegend 100 μg/ml), Integrin beta7 PE, (BioLegend concentration 50 μg/mL), CD49d […] (BioLegend 50 μg/mL), CD3 […] […] Cell population were determined using the following markers, CD45+, CD3+, CD4+, CD45RO+, CD49d+, integrin β7, biotinylated ligands.

[3] = α4β7 Th memory cells, human whole blood, read-out: MAdCAM-1 Competition IC50 (receptor occupancy)

CC(C)C[C@@H]1NC(=O)c2ccc(-c3ccc(N4CCNCC4)cc3)c(c2)CNC(=O)[C@@H]2CCCN2C(=O)[C@H](C)NC(=O)[C@H]([C@@H](C)O)NC(=O)[C@H](CC(=O)O)NC1=O [Compound 8] (cyclo(P[X1]LDTA))
competition with MAdCAM-1 on α4β7-positive primary cells, result in words ([1]; human whole blood): relatively weak concentration-response curve
IC50 ([1]; human whole blood, read-out: α4β7 RO IC50): > 4000 nM
selectivity of RO versus α4β1 (fold difference in IC50 between assays) [1]: no selectivity
IC50 [1, 3]: > 4000 nM
IC50 [2]: > 4000 nM

CC(C)C[C@@H]1NC(=O)c2ccc(-c3ccc(N4CCN(Cc5cccc(CN6CCN(c7ccc(-c8ccc9cc8CNC(=O)[C@@H]8CCCN8C(=O)[C@H](C)NC(=O)[C@H]([C@@H](C)O)NC(=O)[C@H](CC(=O)O)NC(=O)[C@H](CC(C)C)NC9=O)cc7)CC6)c5)CC4)cc3)c(c2)CNC(=O)[C@@H]2CCCN2C(=O)[C@H](C)NC(=O)[C@H]([C@@H](C)O)NC(=O)[C@H](CC(=O)O)NC1=O [Compound 18]
α4β7 RO IC50 ([1]; human whole blood): sub-micromolar
selectivity of RO versus α4β1 (fold difference in IC50 between assays) [1]: selectivity versus α4β1
IC50 [1, 3]: 25 nM and 24.7 nM
IC50 [2]: 123 nM

— patent US11286281B2, “Homodetic cyclic peptides targeting alpha-4-beta-7 integrin” (priority 2017, dated 2022)
